Measured values taken from patent US20120165403A1, “METHODS OF INHIBITING THE ACTIVITY OF HSP90 AND/OR ARYL HYDROCARBON RECEPTOR” (UNIVERSITY OF ROCHESTER, priority 2004, published 2012).

Key:
AhR/Arnt complex = target: T1, AhR/Arnt complex (Mus musculus, UniProt P30561); experiment: AhR/Arnt complex formation by immunoprecipitation in RRL; type: biochemical, murine; conditions: 200 μm EGCG, with or without 1 nM TCDD, anti-AhR immunoprecipitation
T1 construct: made in house; host or cells: TNT rabbit reticulocyte lysate
T1 sequence (P30561 10-805 limits assumed): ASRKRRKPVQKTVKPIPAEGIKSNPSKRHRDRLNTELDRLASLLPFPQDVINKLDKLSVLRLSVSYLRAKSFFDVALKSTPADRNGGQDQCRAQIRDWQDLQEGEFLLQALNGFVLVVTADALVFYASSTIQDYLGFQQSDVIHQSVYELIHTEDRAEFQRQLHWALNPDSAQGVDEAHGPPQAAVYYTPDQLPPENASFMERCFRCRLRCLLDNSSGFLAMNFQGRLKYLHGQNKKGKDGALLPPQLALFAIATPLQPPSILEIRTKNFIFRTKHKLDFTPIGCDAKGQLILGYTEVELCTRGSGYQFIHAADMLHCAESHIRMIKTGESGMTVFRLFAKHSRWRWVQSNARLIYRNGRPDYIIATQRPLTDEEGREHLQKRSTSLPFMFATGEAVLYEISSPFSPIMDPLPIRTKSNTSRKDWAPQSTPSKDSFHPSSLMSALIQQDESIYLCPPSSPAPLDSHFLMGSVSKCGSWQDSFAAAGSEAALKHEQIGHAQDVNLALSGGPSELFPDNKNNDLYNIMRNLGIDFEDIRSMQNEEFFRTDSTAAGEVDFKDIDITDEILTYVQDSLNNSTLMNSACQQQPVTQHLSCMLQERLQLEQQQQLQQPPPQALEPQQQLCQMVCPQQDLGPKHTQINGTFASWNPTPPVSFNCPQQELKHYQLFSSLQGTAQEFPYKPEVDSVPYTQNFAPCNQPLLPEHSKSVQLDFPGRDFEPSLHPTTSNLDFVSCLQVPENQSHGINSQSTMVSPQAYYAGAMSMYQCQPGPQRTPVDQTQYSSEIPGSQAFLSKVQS
Description: Murine AhR and ARNT cDNA (obtained from J. Whitlock and O. Hankinson, respectively) were inserted into pcDNA3 (Invitrogen, Carlsbad, Calif.). Chicken hsp90 constructs (FIG. 5), c90711hsp (wild-type), c90G94D (wild-type point mutant gly94→Asp (Grenert et al., J. Biol. Chem. 272:23843-23850 (1997), which is hereby incorporated by reference in its entirety), c90D92A (wild-type point mutant Asp92→Ala (Sullivan et al., J. Biol. Chem. 268:20373-20379 (1993), which is hereby incorporated by reference in its entirety), c90N221 (wild-type truncation mutant encoding a.a. 221-728 (Sullivan et al., J. Biol. Chem. 268:20373-20379 (1993), which is hereby incorporated by reference in its entirety)), c90N303 (a.a. 303-728) and c90N538 (a.a. 538-728) were kind gifts from Dr. D. Toft (Rochester, Minn.). The C-terminal truncation mutant c900507 (a.a. 1-221) was obtained from Dr. L. Neckers (Rockville, Md.) (Grenert et al., J. Biol. Chem. 272:23843-23850 (1997); Marcu et al., J. Biol. Chem. 275:37181-37186 (2000), which are hereby incorporated by reference in their entirety). Human p23 cDNA was excised from pQE80-p23 (obtained from W. Chan Stockton, Calif.) by sequential digests using the restriction enzymes Sad (3′-end) and BamHI (5′-end) and inserted into the similarly digested pET28a (Novagen, Madison, Wis.). […]

chicken hsp90 = chicken hsp90 (Gallus gallus, UniProt P11501); experiment: Trypsin treatment of in vitro translated hsp90; type: biochemical; design: made in house; host or cells: TNT rabbit reticulocyte lysate, 35S-labelled; conditions: in absence of AhR or ARNT, trypsin 10 minutes at room temperature
Method: Chicken hsp90 was translated in vitro using the TNT RRL system as described supra in the presence of [^35S]Methionine, diluted, incubated with DMSO or EGCG, and treated with trypsin at indicated concentrations for 10 minutes at room temperature. All samples were separated by 10% SDS-PAGE, transferred to PVDF membrane, and visualized by phosphorImager. Results of the experiment are illustrated in FIG. 13. […] Therefore, the ability of EGCG to affect hsp90 conformation is not dependent on the presence of AhR or ARNT.

SMILES: O=C(O[C@@H]1Cc2c(O)cc(O)cc2O[C@@H]1c1cc(O)c(O)c(O)c1)c1cc(O)c(O)c(O)c1 [EGCG, epigallocatechin gallate]
- effect on AhR/Arnt complex formation (AhR/Arnt complex): disrupting AhR/Arnt complex formation
- effect on hsp90 conformation (trypsin treatment) (chicken hsp90): altered conformation of hsp90
